13 compounds from ChEMBL document CHEMBL1201862, “PubChem BioAssay data set” (2004) can be followed below.

Test systems include SNB-19; HOP-92; NCI-H226; HCT-116; SF-268; 786-0; SK-MEL-28; A549; COLO 205; SK-MEL-5; SK-OV-3; M14; CAKI-1; SW-620; HOP-62; SNB-75; Malme-3M.
Assay in all cases: growth of human tumour cells (NCI), 48 h

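Grown in 96-well plates, cells were treated for 48 hours with each compound at five concentrations. Insufficient inhibition: endpoint recorded as highest concentration tested. At the GI50, growth is halved.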 Active and inactive are the calls of the source. No stated cut-off is given here; in the data, active = GI50 up to about 1.1 µM and inactive = higher.

Regarding `Clc1ncnc2c1ncn2CCCCCCCCCCCCn1cnc2c(Cl)ncnc21`, the GI50 is 14.7 µM (inactive) in the test on SNB-19; 5.24 µM (inactive) with HOP-92; 11.7 µM (inactive) in the test on NCI-H226; 10.7 µM (inactive) in the test with HCT-116; 14.3 µM (inactive) with SF-268; 17.7 µM (inactive) with 786-0. Besides, the GI50 with SK-MEL-28 was 2.6 µM (inactive); with A549, 11.7 µM (inactive); with COLO 205, 15.6 µM (inactive); with SK-MEL-5 it was 4.83 µM (inactive); in the test on SK-OV-3 it was 16.4 µM (inactive); in the test with M14, 15.3 µM (inactive). In addition, the GI50 in the test with CAKI-1 was 3.4 µM (inactive); with SW-620 it was 22.4 µM (inactive); with HOP-62 it was 18.6 µM (inactive).

For the compound `CC(C)(C)c1cc(C(OCCl)(C(F)(F)F)C(F)(F)F)c2c(c1)C(C(F)(F)F)(C(F)(F)F)OC21c2ccccc2C(=O)c2ccccc21`, the GI50 was > 100 µM (inactive) in the test on SNB-19; < 0.01 µM (active) in the test with HOP-92; > 100 µM (inactive) in the test on SNB-75; > 100 µM (inactive) with NCI-H226; > 100 µM (inactive) with HCT-116; > 100 µM (inactive) in the test with 786-0. Further, the GI50 in the test with SK-MEL-28, in the test on A549, with Malme-3M, in the test on COLO 205, in the test with SK-MEL-5 and in the test on M14 was > 100 µM (inactive) throughout. Moreover, the GI50 in the test with CAKI-1 and in the test on SW-620 was > 100 µM (inactive) in each case.

Turning to `C[N+](C)(C)CC(=O)N/N=C(/Cc1nc2c3c(ccc2nc1O)C(=O)c1ccccc1C3=O)C(=O)Nc1ccc(Cl)c(Cl)c1`, the GI50 with HOP-92 was 29.6 µM (inactive); in the test with HCT-116 it was 43.3 µM (inactive); in the test with SF-268, 26 µM (inactive); in the test on 786-0, 77.6 µM (inactive); with SK-MEL-28, > 100 µM (inactive); in the test with A549, 42.7 µM (inactive). Besides, the GI50 in the test on Malme-3M was > 100 µM (inactive); in the test on COLO 205 it was > 100 µM (inactive); in the test on SK-MEL-5, 36.6 µM (inactive); in the test with SK-OV-3 it was 23.9 µM (inactive); in the test with M14, 81.1 µM (inactive); in the test on CAKI-1 it was 15.5 µM (inactive). Also, the GI50 was 35.2 µM (inactive) in the test with SW-620 and 35.9 µM (inactive) with HOP-62.

On to `Cc1cc(C)nc(NS(=O)(=O)c2ccc(Nc3c4ccc(Cl)cc4nc4c(C(=O)Nc5ccc(S(=O)(=O)N=C(N)N)cc5)cccc34)cc2)n1`, for which the GI50 with SNB-19 is > 100 µM (inactive); in the test on SNB-75, 57.7 µM (inactive); in the test with HCT-116, 54.3 µM (inactive); in the test on SF-268 it was 35.7 µM (inactive); in the test on 786-0, > 100 µM (inactive); with SK-MEL-28, 77.6 µM (inactive). Further, the GI50 is 78.7 µM (inactive) in the test with Malme-3M, > 100 µM (inactive) in the test on SK-OV-3, > 100 µM (inactive) in the test with M14 and > 100 µM (inactive) in the test on HOP-62.

Turning to `COC(=O)CCCN(C)c1nc(N)n[nH]1`, the GI50 was > 100 µM (inactive) in the test with SNB-19; 66.2 µM (inactive) in the test with SNB-75; > 100 µM (inactive) with NCI-H226; > 100 µM (inactive) in the test with HCT-116; > 100 µM (inactive) in the test on SF-268; > 100 µM (inactive) with 786-0. Moreover, the GI50 in the test on SK-MEL-28, with A549, with COLO 205, in the test on SK-MEL-5, in the test on SK-OV-3 and in the test on M14 was > 100 µM (inactive) throughout. For the same compound, the GI50 with SW-620 and with HOP-62 was > 100 µM (inactive) each time.

In the case of `C/C(=N\NC(=N)N)C(CN1CCCCC1)C(c1ccccc1)c1c(O)c2ccccc2oc1=O` (stereo unspecified), the GI50 was > 100 µM (inactive) with SNB-19; 47.8 µM (inactive) in the test on HOP-92; > 100 µM (inactive) in the test on SNB-75; > 100 µM (inactive) in the test on NCI-H226; > 100 µM (inactive) in the test with HCT-116; > 100 µM (inactive) with SF-268. The GI50 in the test with 786-0, in the test on SK-MEL-28, in the test on A549, in the test on Malme-3M, in the test with COLO 205 and with SK-OV-3 was > 100 µM (inactive) each time. For the same compound, the GI50 in the test with M14, in the test on CAKI-1, in the test on SW-620 and with HOP-62 was > 100 µM (inactive) throughout.

For `CCO/C(CCn1[nH]c(=O)c(Cl)c(Cl)c1=O)=N\NC(=O)C(=O)NN`, the GI50 in the test on SNB-19, in the test on SNB-75, in the test on NCI-H226, in the test on SF-268, with 786-0 and with SK-MEL-28 was > 100 µM (inactive) each time. Further, the GI50 in the test on A549, with Malme-3M, with COLO 205, in the test on SK-MEL-5, with SK-OV-3 and in the test on M14 was > 100 µM (inactive) each time. Also, the GI50 with CAKI-1, in the test with SW-620 and in the test on HOP-62 was > 100 µM (inactive) each time.

Take `CCOC(=O)N1CCN(C=S)CC1`: the GI50 in the test on SNB-19, with SNB-75, with HCT-116, in the test on SF-268, in the test on 786-0 and with SK-MEL-28 was > 100 µM (inactive) throughout. In addition, the GI50 with A549, in the test on Malme-3M, in the test on COLO 205, in the test on SK-MEL-5, in the test on SK-OV-3 and with M14 was > 100 µM (inactive) in each case. Also, the GI50 with SW-620 and in the test with HOP-62 was > 100 µM (inactive) each time.

For `C[N+](C)(C)CC1CCC/C1=N\OC(=O)c1ccccc1` (stereo unspecified), the GI50 in the test on SNB-19, with SNB-75, in the test with NCI-H226, in the test with HCT-116, in the test on SF-268 and with 786-0 was > 100 µM (inactive) throughout. Moreover, the GI50 with SK-MEL-28, in the test with A549, with Malme-3M, in the test on COLO 205, in the test with SK-MEL-5 and with SK-OV-3 was > 100 µM (inactive) throughout. The GI50 with M14, with SW-620 and with HOP-62 was > 100 µM (inactive) throughout.

For the compound `COc1ccc(CC2(Cc3ccc(OC)cc3)CCOC2=O)cc1`, the GI50 in the test with SNB-19 is > 100 µM (inactive); in the test on HOP-92, 40.6 µM (inactive); with SNB-75 it was 14.7 µM (inactive); in the test on NCI-H226, > 100 µM (inactive); in the test on HCT-116 it was > 100 µM (inactive); with SF-268, 45.8 µM (inactive). The GI50 with 786-0 was 44 µM (inactive); with SK-MEL-28, > 100 µM (inactive); in the test with A549 it was > 100 µM (inactive); in the test with Malme-3M, > 100 µM (inactive); with COLO 205, > 100 µM (inactive); in the test with SK-OV-3, > 100 µM (inactive). In addition, the GI50 is > 100 µM (inactive) with M14, 67 µM (inactive) with CAKI-1, > 100 µM (inactive) in the test on SW-620 and 20.8 µM (inactive) with HOP-62.

With `C#CCNC(=O)ON1C(=O)CCC1=O`, the GI50 with SNB-19, in the test with SNB-75, with HCT-116, with SF-268, in the test on 786-0 and with SK-MEL-28 was > 100 µM (inactive) each time. In addition, the GI50 in the test with A549, with Malme-3M, in the test with COLO 205, in the test on SK-OV-3, with SW-620 and in the test with HOP-62 was > 100 µM (inactive) each time.

Turning to `CCOC(=O)NC(=O)c1cn(CCN2CCN(c3ncnc4[nH]cnc34)CC2)c(=O)[nH]c1=O`, the GI50 in the test with SNB-19 was > 100 µM (inactive); in the test on HOP-92 it was 10.6 µM (inactive); with SNB-75, > 100 µM (inactive); in the test on NCI-H226, > 100 µM (inactive); in the test with HCT-116, > 100 µM (inactive); with SF-268, > 100 µM (inactive). Moreover, the GI50 with 786-0, in the test on SK-MEL-28, in the test on A549, in the test on Malme-3M, with COLO 205 and in the test with SK-MEL-5 was > 100 µM (inactive) throughout. Further, the GI50 in the test with SK-OV-3, in the test with M14, in the test with SW-620 and with HOP-62 was > 100 µM (inactive) throughout.

As for `Cc1cccc(NC(=O)Cc2nc3ccccc3s2)c1C`, the GI50 in the test on SNB-19, in the test with SNB-75, with NCI-H226, with SF-268, in the test on 786-0 and with SK-MEL-28 was > 100 µM (inactive) each time. Further, the GI50 with A549, in the test with Malme-3M, in the test on COLO 205, in the test on SK-MEL-5, with SK-OV-3 and with M14 was > 100 µM (inactive) throughout. The GI50 in the test with CAKI-1, in the test with SW-620 and with HOP-62 was > 100 µM (inactive) in each case.
